Experimental data as given in patent US20250388604A1, “Compounds and Their Use as PDE4 Activators” (Mironid Limited, priority 2022, published 2025).

Test system: m-IMCD3 cells
Experiment: Inhibition of PGE2-stimulated in vitro cyst formation in m-IMCD3 cells
Format: cell-based, mouse
Settings: mean cyst area, 100% for (DMSO + PGE2) and 0% for DMSO control, 6 days of culture; for activity at 10 µM: read-out: % Cyst area after incubation with 10 μM test compound
Description: HEK 293 and MDCK cells (Public Health England, Cell Culture Collections) were maintained in Dulbecco's Modified Eagle's Medium (DMEM) supplemented with 10% (v/v) fetal bovine serum (FBS) (Seralab), 2 mM L-glutamine and 100 U/mL penicillin streptomycin cocktail (ThermoFisher); termed complete media. Clonal HEK 293 cell lines were maintained in complete media supplemented with 0.6 mg/ml G418 (Enzo Life Sciences). Mouse inner medullary collecting duct (m-IMCD3) cells [American Type Culture Collection (ATCC)] were maintained in media consisting of DMEM/Hams F-12 50/50 Mix (DMEM F12; Corning) supplemented with penicillin streptomycin cocktail (100 U/mL) and FBS (10% v/v) (DMEM F12-10% FBS).
The mouse Inner Medullary Collecting Duct cell line (m-IMCD3) spontaneously forms cystic spheroids in 3D culture with a Type 1 collagen/Matrigel extracellular matrix. This process can be stimulated with agents which raise intracellular cAMP and is used as an in vitro model for the formation of cystic structures in the kidneys of patients with ADPKD.
Rat Collagen I (Fisher Scientific) is prepared on ice by neutralising with 1M NaOH and diluting with a 2× volume of DMEM/F12+10% FBS. This is mixed 1:1.1 with ice cold Matrigel (Corning) for coating plates (coating mix), and 1:0.93 with Matrigel for cell plating (plating mix).
The assay is conducted in the wells of a 96-well plate culture dish using a total volume of 130 μL of collagen/Matrigel/DMEM F12-10% FBS suspension in growth media for each matrix plug per individual well. Initially, 30 μL of collagen/Matrigel/DMEM F12-10% FBS (coating mix) is added into the well of a 96 well plate and the collagen is set to a gel by incubating at 37° C. for at least 15 minutes. A second layer of 100 μL collagen/Matrigel suspension (plating mix) containing m-IMCD3 cells (2.75×10^6 m-IMCD3 cells per 96-well plate) is layered over the coating mix and the collagen/Matrigel/cell mix again set to a gel by incubating at 37° C. Cell cultures are maintained at 37° C. in an atmosphere of 5% CO2, 95% air.
Between 18 and 24 h after plating, test compound(s) as DMSO stock solutions [0.1% (v/v) final DMSO concentration] and PGE2 (100 nM final concentration) in DMEM F12-10% FBS are added in quadruplicate wells per condition. Media, together with the test compound and PGE2 are replenished after 2 or 3 days. After 6 days of culture z stack images of the wells are captured using the Nikon Eclipse Ti2-E microscope. Nikon General Analysis software is used to measure the following parameters in each well: the mean cyst area, the number of cysts, and the total cyst area.
PDE4 long form activators inhibited in vitro cyst formation in m-IMCD3 cells. Data are shown in Table 4 as mean cyst area (%), compared to 100% for (DMSO+PGE2) and 0% for DMSO control.

SMILES | activity at 10 µM (Mus musculus, mIMCD3, 144 h) | also measured
CC(C(=O)N1CCc2nc(N3C4CCC3CNC4)sc2C1)C(C)(C)C (single isomer, unassigned) [Example 158, 1-(2-(3,8-diazabicyclo[3.2.1]octan-8-yl)-6,7-dihydrothiazolo[5,4-c]pyridin-5(4H)-yl)-2,3,3-trimethylbutan-1-one] |  | % Cyst area after incubation with 3 μM test compound (3 μM): 7%
CC(C(=O)N1CCc2nc(N3C4CCC3CNC4)sc2C1)C(C)(C)C (single isomer, unassigned) [Example 159, 1-(2-(3,8-diazabicyclo[3.2.1]octan-8-yl)-6,7-dihydrothiazolo[5,4-c]pyridin-5(4H)-yl)-2,3,3-trimethylbutan-1-one] |  | % Cyst area after incubation with 3 μM test compound (3 μM): 0%
CC(O)(C(=O)N1CCc2nc(N3C4CCC3CNC4)sc2C1)C1CCCC1 (single isomer, unassigned) [Example 254, 1-(2-(3,8-diazabicyclo[3.2.1]octan-8-yl)-6,7-dihydrothiazolo[5,4-c]pyridin-5(4H)-yl)-2-cyclopentyl-2-hydroxypropan-1-one] |  | activity at 3 µM (Mus musculus, mIMCD3, 144 h, 3 μM, read-out: % Cyst area after incubation with 3 μM test compound): -5%
CC(O)(C(=O)N1CCc2nc(N3C4CCC3CNC4)sc2C1)C1CCCC1 (single isomer, unassigned) [Example 255, 1-(2-(3,8-diazabicyclo[3.2.1]octan-8-yl)-6,7-dihydrothiazolo[5,4-c]pyridin-5(4H)-yl)-2-cyclopentyl-2-hydroxypropan-1-one] |  | % Cyst area after incubation with 3 μM test compound (3 μM): −5%
O=C(CC1CCC(F)(F)CC1)N1CCc2nc(N3C4CCC3CNC4)sc2C1 [Example 2, 1-(2-(3,8-diazabicyclo[3.2.1]octan-8-yl)-6,7-dihydrothiazolo[5,4-c]pyridin-5(4H)-yl)-2-(4,4-difluorocyclohexyl)ethan-1-one] | 2% | 
O=C(CC1CCOCC1)N1CCc2nc(N3C4CCC3CNC4)sc2C1 [Example 3, 1-(2-(3,8-diazabicyclo[3.2.1]octan-8-yl)-6,7-dihydrothiazolo[5,4-c]pyridin-5(4H)-yl)-2-(tetrahydro-2H-pyran-4-yl)ethan-1-one] | 13% | 
CC(C)OCC(=O)N1CCc2nc(N3C4CCC3CNC4)sc2C1 [Example 4, 1-(2-(3,8-diazabicyclo[3.2.1]octan-8-yl)-6,7-dihydrothiazolo[5,4-c]pyridin-5(4H)-yl)-2-isopropoxyethan-1-one] | 12% | 
O=C(CCc1ccccc1)N1CCc2nc(N3C4CCC3CNC4)sc2C1 [Example 5, 1-(2-(3,8-diazabicyclo[3.2.1]octan-8-yl)-6,7-dihydrothiazolo[5,4-c]pyridin-5(4H)-yl)-3-phenylpropan-1-one] | -5% | 
CC(C)CC(=O)N1CCc2nc(N3C4CCC3CNC4)sc2C1 [Example 9, 1-(2-(3,8-diazabicyclo[3.2.1]octan-8-yl)-6,7-dihydrothiazolo[5,4-c]pyridin-5(4H)-yl)-3-methylbutan-1-one] | 0% | 
O=C(CC1CCC1)N1CCc2nc(N3C4CCC3CNC4)sc2C1 [Example 11, 1-(2-(3,8-diazabicyclo[3.2.1]octan-8-yl)-6,7-dihydrothiazolo[5,4-c]pyridin-5(4H)-yl)-2-cyclobutylethan-1-one] | -3% | 
O=C(CC12CC(C1)C2)N1CCc2nc(N3C4CCC3CNC4)sc2C1 [Example 12, 1-(2-(3,8-diazabicyclo[3.2.1]octan-8-yl)-6,7-dihydrothiazolo[5,4-c]pyridin-5(4H)-yl)-2-(bicyclo[1.1.1]pentan-1-yl)ethan-1-one] | -2% | 
CC[C@@H](C)C(=O)N1CCc2nc(N3C4CCC3CNC4)sc2C1 [Example 16, (2R)-1-(2-(3,8-diazabicyclo[3.2.1]octan-8-yl)-6,7-dihydrothiazolo[5,4-c]pyridin-5(4H)-yl)-2-methylbutan-1-one] | -2% | 
CC(C)[C@@H](C)C(=O)N1CCc2nc(N3C4CCC3CNC4)sc2C1 [Example 19, (2R)-1-(2-(3,8-diazabicyclo[3.2.1]octan-8-yl)-6,7-dihydrothiazolo[5,4-c]pyridin-5(4H)-yl)-2,3-dimethylbutan-1-one] | -2% | 
CC(C)C(=O)N1CCc2nc(N3C4CCC3CNC4)sc2C1 [Example 20, 1-(2-(3,8-diazabicyclo[3.2.1]octan-8-yl)-6,7-dihydrothiazolo[5,4-c]pyridin-5(4H)-yl)-2-methylpropan-1-one] | 9% | 
O=C(COc1ccc(F)cc1)N1CCc2nc(N3C4CCC3CNC4)sc2C1 [Example 21, 1-(2-(3,8-diazabicyclo[3.2.1]octan-8-yl)-6,7-dihydrothiazolo[5,4-c]pyridin-5(4H)-yl)-2-(4-fluorophenoxy)ethan-1-one] | -1% | 
O=C(C1CCCC1)N1CCc2nc(N3C4CCC3CNC4)sc2C1 [Example 22, (2-(3,8-diazabicyclo[3.2.1]octan-8-yl)-6,7-dihydrothiazolo[5,4-c]pyridin-5(4H)-yl)(cyclopentyl)methanone] | -2% | 
CC(Oc1ccccc1)C(=O)N1CCc2nc(N3C4CCC3CNC4)sc2C1 (centres unmarked) [Example 23, 1-(2-(3,8-diazabicyclo[3.2.1]octan-8-yl)-6,7-dihydrothiazolo[5,4-c]pyridin-5(4H)-yl)-2-phenoxypropan-1-one] | 0% | 
O=C(N1CCc2nc(N3C4CCC3CNC4)sc2C1)C(F)(F)C1CCCC1 [Example 24, 1-(2-(3,8-diazabicyclo[3.2.1]octan-8-yl)-6,7-dihydrothiazolo[5,4-c]pyridin-5(4H)-yl)-2-cyclopentyl-2,2-difluoroethan-1-one] | 0% | 
O=C(Cc1ccc(F)cc1)N1CCc2nc(N3C4CCC3CNC4)sc2C1 [Example 25, 1-(2-(3,8-diazabicyclo[3.2.1]octan-8-yl)-6,7-dihydrothiazolo[5,4-c]pyridin-5(4H)-yl)-2-(4-fluorophenyl)ethan-1-one] | 6% | 
O=C(CC(F)(F)F)N1CCc2nc(N3C4CCC3CNC4)sc2C1 [Example 26, 1-(2-(3,8-diazabicyclo[3.2.1]octan-8-yl)-6,7-dihydrothiazolo[5,4-c]pyridin-5(4H)-yl)-3,3,3-trifluoropropan-1-one] | 1% | 
CC(C)C(O)C(=O)N1CCc2nc(N3C4CCC3CNC4)sc2C1 (centres unmarked) [Example 28, 1-(2-(3,8-diazabicyclo[3.2.1]octan-8-yl)-6,7-dihydrothiazolo[5,4-c]pyridin-5(4H)-yl)-2-hydroxy-3-methylbutan-1-one] | 3% | 
CC(C)(Oc1ccccc1)C(=O)N1CCc2nc(N3C4CCC3CNC4)sc2C1 [Example 30, 1-(2-(3,8-diazabicyclo[3.2.1]octan-8-yl)-6,7-dihydrothiazolo[5,4-c]pyridin-5(4H)-yl)-2-methyl-2-phenoxypropan-1-one] | 1% | 
O=C(N1CCc2nc(N3C4CCC3CNC4)sc2C1)C1(Oc2ccccc2)CC1 [Example 31, (2-(3,8-diazabicyclo[3.2.1]octan-8-yl)-6,7-dihydrothiazolo[5,4-c]pyridin-5(4H)-yl)(1-phenoxycyclopropyl)methanone] | 7% | 
CC(C)(C(=O)N1CCc2nc(N3C4CCC3CNC4)sc2C1)C(F)(F)F [Example 32, 1-(2-(3,8-diazabicyclo[3.2.1]octan-8-yl)-6,7-dihydrothiazolo[5,4-c]pyridin-5(4H)-yl)-3,3,3-trifluoro-2,2-dimethylpropan-1-one] | 1% | 
O=C(N1CCc2nc(N3C4CCC3CNC4)sc2C1)C1(c2ccccc2)CC1 [Example 33, (2-(3,8-diazabicyclo[3.2.1]octan-8-yl)-6,7-dihydrothiazolo[5,4-c]pyridin-5(4H)-yl)(1-phenylcyclopropyl)methanone] | 8% | 
O=C(C(F)C1CCCC1)N1CCc2nc(N3C4CCC3CNC4)sc2C1 (centres unmarked) [Example 34, 1-(2-(3,8-diazabicyclo[3.2.1]octan-8-yl)-6,7-dihydrothiazolo[5,4-c]pyridin-5(4H)-yl)-2-cyclopentyl-2-fluoroethan-1-one] | -2% | 
